Legend:
4T1 = experiment: Triple negative breast tumor 4T1 in BalB/C mice; type: in vivo
Description: To investigate the effect of carvedilol and R-carvedilol on breast cancer growth, the BalB/C mice were treated with the drugs (20 mg/kg/day) in drinking water for two weeks before the mice were inoculated with murine triple negative breast tumor 4T1 in the fourth left mammary fat pad. […] The same experimental model was treated with carvedilol or R-carvedilol, in combination with the anti-PD-1 therapy.

JB6 [1] = details: among 16 β-blockers examined (Cleveland K H, 2019); cited from earlier work
[2] = test system: B(a)P-induced lung toxicity; experiment: Short term single dose B(a)P-induced lung toxicity in mice; type: in vivo, CD1/IGS mice; details: for plasma LDH levels / plasma MDA levels (LPO): B(a)P 125 mg/kg on day 7
Description: Chronic exposure to carcinogens that are present in tobacco smoking or air pollution is a well-known cause of lung cancer. One of the most important strategies to manage lung cancer is chemoprevention, which uses synthetic or natural products to block or reverse lung cancer initiation, promotion, and progression. Benzo(a)pyrene (B(a)P), a polycyclic aromatic hydrocarbon, is a pro-carcinogen ubiquitously present as pollutants in the environment. It is mostly produced during cigarette smoking and is present in automobile exhausts, and causes lung toxicity and lung cancer after metabolic activation. A single dose B(a)P-induced lung toxicity study in mice was used to evaluate the protective effects of carvedilol. In male CD1/IGS mice, carvedilol was orally administered (20 mg/kg body weight) once a day for 7 days. The mice were then treated with a single dose B(a)P via oral gavage (125 mg/kg body weight) on day 7, 30 min after the drug treatment. Mice were sacrificed 24 hours after B(a)P treatment. As expected, B(a)P increased the plasma levels of lactate dehydrogenase (LDH) and Malondialdehyde (MDA) for lipid peroxides (LPO).

[3] = test system: UV-induced immunosuppression; experiment: UV-induced suppression of contact hypersensitivity (CHS) to DNFB; type: in vivo, SKH-1 hairless mice; details: single dose i.p. 2 h before UV 224 mJ/cm^2; carvedilol 1 and 10 mg/kg, R-carvedilol 10 mg/kg
Description: Mice were treated with NS398, CAR or R-CAR (L: 1 mg/kg; H: 10 mg/kg) i.p. 2 hr before UV exposure (224 mJ/cm^2). 24 h after, mice were sensitized with DNFB on back. After 7 days, the right ears were challenged with DNFB. 24 h after, 5 mm punch biopsies were obtained from both ears and weighed. The data are the mean±SE difference in ear biopsy weights (right-left) from n=5 mice (male). *: P<0.05; **: P<0.01.
The data listed are the mean±SE difference in ear biopsy weights (Right-Left) from n=5 mice (male). *: P<0.05; **:P<0.01.
Immunosuppression induced by UV radiation is commonly investigated using the contact hypersensitivity (CHS) response to contact allergens such as the hapten dinitrofluorobenzene (DNFB). […] Thus, carvedilol's skin cancer preventive activity may be partly attributed to its inhibitory effects on UV-induced immunosuppression.
The mice were pretreated with single dose of R-carvedilol (10 mg/kg, i.p.) two hours before UV radiation, and were subject to UV exposure. […] Thus, R-carvedilol, although not a β-blocker, similarly reverses UV-induced immunosuppression.
CHS assay was used to evaluate the effects of a topical delivery system of carvedilol developed by us, named “T-CAR”, on UV-induced immunosuppression. […]

[4] = Systolic blood pressure of mice, noninvasive tail-cuff system; type: in vivo; details: mouse, in vivo, 32 mg/kg/day
Description: SKH-1 mice were given racemic carvedilol or R-carvedilol in drinking water for two weeks (32 mg/kg/day). Blood pressure was examined in mice utilizing a Kent CODATM noninvasive tail-cuff system.

[5] = test system: UV induced skin carcinogenesis; experiment: Chronic UV induced skin carcinogenesis model; type: in vivo, mice; details: topical, chronic UV
B16-F10 tumor = B16-F10 tumor bearing C57BL/6 mice; type: in vivo; details: topical daily
Description: Comparison of the efficacy of free drug and T-CAR (day 14). One day after tumor inoculation (two tumors per mouse, mice received free drug or T-CAR daily.
One day after tumor inoculation (one per mouse), mice received free drug or T-CAR daily, 200 μg RMP1-14 twice a week, or combination.
A: group 1, control; B: group 4, T-CAR+RMP1-14. Tumor collected at day 20 after inoculation.
Tumor collected at day 20 after inoculation.
The carvedilol loaded transfersome, T-CAR, was evaluated in vitro and in vivo on melanoma growth. […] To examine the in vivo activity of T-CAR, in C57BL/6 mice bearing the B16-F10 tumor, the T-CAR gel as a topical monotherapy was examined. The efficacy of T-CAR was compared with free drug dissolved in acetone in male mice bearing B16-F10 (two tumors inoculated in each mouse). […] Second study examined efficacy of topical T-CAR combined with anti-PD-1 (RMP1-14, 200 μg per mouse, i.p. twice per week) (one tumor was inoculated in each mouse).

B(a)P-induced lung tumor = experiment: Long term B(a)P-induced lung carcinogenesis in A/J mice; type: in vivo; details: for tumor incidence: B(a)P only 100%
Description: To examine the chemopreventive efficacy of carvedilol, we used an established lung carcinogenesis model in A/J mice induced by B(a)P. Two drug doses were examined: 20 mg/kg (H) and 3.2 mg/kg (L). The mice were randomly divided by body weight into seven groups at the beginning of the experiments. To induce lung tumor, mice were given a single intraperitoneal (i.p.) injection of B(a)P at 100 mg/kg body weight in 0.2 ml tricaprylin. The following are treatment groups: (1) vehicle control, n=8; (2) B(a)P only, n=9; (3) B(a)P+gefitinib 400 mg/kg, weekly oral gavage, positive control, n=10; (4) B(a)P+carvedilol 20 mg/kg drinking water, n=9; (5) B(a)P+carvedilol 3.2 mg/kg drinking water, n=8; (6) B(a)P+R-carvedilol 20 mg/kg drinking water, n=9; (7) B(a)P+R-carvedilol 3.2 mg/kg drinking water, n=10. The mice began the drug treatments 3 weeks before B(a)P treatment and terminated at 23 weeks after B(a)P treatment. […] Tumor multiplicity was determined by counting surface tumors in fixed lung under a dissecting microscope. […] The tumor incidence for gefitinib group was 70%. The tumor incidence was 89% and 50% for high and low dose carvedilol, respectively. The tumor incidence was 67% and 70% for high and low dose R-carvedilol, respectively.

[6] = orally administered; cited from earlier work
[7] = Ex vivo permeation across rat skin, Franz diffusion cells; type: in vitro ADME; details: rat, 200 μg/mL
Description: Instead of nanoparticle-based topical delivery, the present inventors have explored other methods of skin delivery of drugs. They investigated the effects of natural penetration enhancers on the ex vivo permeation of carvedilol across rat skin. […] The drug formulations containing carvedilol or R-carvedilol (200 μg/mL) (1 mL) was loaded on Franz diffusion cells using excised rat dorsal skin (with hair removed). […] D-limonene is isolated from orange peel, and is a cheap and safe option to delivery carvedilol (same for R-carvedilol) for skin cancer prevention. D-limonene is present in many skin commercial products such as perfumes and essential oils. Therefore, this invention provides another novel approach of making skin targeting formulation for both carvedilol and R-carvedilol. This approach of making skin formulation is not only safe but also easier to scale up to industry level for making large amount.

JB6 [8] = experiment: EGF-induced JB6 transformation; type: cell-based, mouse
[9] = oral 20 mg/kg once a day for 7 days

COc1ccccc1OCCNCC(O)COc1cccc2[nH]c3ccccc3c12 (racemic) [carvedilol]
tumor growth (4T1; 20 mg/kg/day in drinking water from two weeks before inoculation, monotherapy): significantly reduced
efficacy in combination with anti-PD-1 therapy (4T1; same 4T1 model, combined with anti-PD-1): enhanced the efficacy of anti-PD-1 monotherapy
potency in preventing EGF-induced neoplastic transformation of mouse epidermal cells (JB6 [1]): highest potency
B(a)P-induced expression of COX-2 in lung (IHC) [2, 9]: attenuated
plasma LDH levels [2, 9]: significantly attenuated
plasma MDA levels (LPO) [2, 9]: significantly attenuated
B(a)P-induced lung morphological changes (histology) ([2]; oral 20 mg/kg once a day for 7 days, H&E): reduction in these morphological changes
UV-induced CHS suppression [3]: reversed UV-induced suppression of CHS
mean systolic blood pressure [4]: statistically reduced mean systolic blood pressure
delay in tumor formation compared to UV only controls [5]: 3 week
tumor inhibition (total tumor volume) (B16-F10 tumor; 10 μM, day 14, two tumors per mouse, male mice): trend of tumor inhibition
tumor inhibition (total tumor volume) (B16-F10 tumor; free drug in acetone 100 μM (CAR H), day 14): less effective
tumor incidence (B(a)P-induced lung tumor; high dose 20 mg/kg drinking water): 89%
tumor incidence (B(a)P-induced lung tumor; low dose 3.2 mg/kg drinking water): 50%
tumor multiplicity (B(a)P-induced lung tumor; lower dose 3.2 mg/kg drinking water): significantly attenuated
bioavailability [6]: 24%
permeation [7]: 1.6 ± 0.25 µg
permeation ([7]; pH 7.4): 0.430 /−0.07 μg

COc1ccccc1OCCNC[C@H](O)COc1cccc2[nH]c3ccccc3c12 [S-carvedilol]
inhibitory effects on EGF-induced JB6 transformation (JB6 [8]): nearly identical inhibitory effects
plasma LDH levels [2, 9]: significantly attenuated
plasma MDA levels (LPO) [2, 9]: significantly attenuated
protection against B(a)P-induced histological changes and COX-2 expression ([2]; oral, compared with racemic carvedilol): same degree of protection as the racemic carvedilol

COc1cc2ncnc(Nc3ccc(F)c(Cl)c3)c2cc1OCCCN1CCOCC1 [gefitinib]
tumor incidence (B(a)P-induced lung tumor; 400 mg/kg weekly oral gavage, positive control): 70%

From patent US20220273617A1, “ANTI-CANCER, ANTI-INFLAMMATORY AND IMMUNOMODULATORY ACTIVITY OF R-CARVEDILOL AND METHODS OF USE” (priority 2021, published 2022)
